Assay results published in ChEMBL document CHEMBL1201862, “PubChem BioAssay data set” (2004).
Calls of active or inactive are those of the source.

Columns and labels:
Prothrombin = Prothrombin (Homo sapiens, UniProt P00734); assay: Thrombin 1536 HTS Dose Response Confirmation. [Related pubchem assays: 1046 (Thrombin 1536 HTS; hits were confirmed in this assay)]; assay type: functional
[1] = biological target: T1, Mannose-6-phosphate isomerase (Homo sapiens, UniProt P34949); assay: MPI inhibition at elevated mannose 6-phosphate – biochemical, fluorescence intensity, high mannose 6-phosphate, primary screen (AID 1220)
T1 sequence (P34949 whole entry): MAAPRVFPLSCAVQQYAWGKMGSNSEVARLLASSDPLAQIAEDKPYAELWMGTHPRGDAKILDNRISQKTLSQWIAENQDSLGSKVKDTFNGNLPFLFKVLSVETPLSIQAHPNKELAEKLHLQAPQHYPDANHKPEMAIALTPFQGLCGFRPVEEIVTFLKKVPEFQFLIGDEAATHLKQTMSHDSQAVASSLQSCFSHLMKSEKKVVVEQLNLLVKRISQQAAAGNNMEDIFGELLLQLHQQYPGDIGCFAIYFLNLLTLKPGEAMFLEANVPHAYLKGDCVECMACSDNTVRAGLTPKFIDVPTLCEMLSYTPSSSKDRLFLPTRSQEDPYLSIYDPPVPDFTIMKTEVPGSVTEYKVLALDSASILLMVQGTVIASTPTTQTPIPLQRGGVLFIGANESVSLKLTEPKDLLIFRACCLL

Protein Tat = biological target: T2, Protein Tat (Human immunodeficiency virus type 1 group M subtype B (isolate HXB2)(HIV-1), UniProt P04608); assay type: functional;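 further: tat binding to TAR RNA read out by fluorescence polarization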
T2 sequence (P04608 whole entry): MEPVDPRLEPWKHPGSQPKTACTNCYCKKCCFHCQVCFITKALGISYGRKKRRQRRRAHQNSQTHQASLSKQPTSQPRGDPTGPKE

Cytochrome P450 2C19 = Cytochrome P450 2C19 (Homo sapiens, UniProt P33261); assay: qHTS Assay for Inhibitors and Substrates of Cytochrome P450 2C19. [Related pubchem assays: 410 ]; assay type: ADME; conditions: read-out: Potency
Chain of Cytochrome P450 2C19 (P33261 whole entry): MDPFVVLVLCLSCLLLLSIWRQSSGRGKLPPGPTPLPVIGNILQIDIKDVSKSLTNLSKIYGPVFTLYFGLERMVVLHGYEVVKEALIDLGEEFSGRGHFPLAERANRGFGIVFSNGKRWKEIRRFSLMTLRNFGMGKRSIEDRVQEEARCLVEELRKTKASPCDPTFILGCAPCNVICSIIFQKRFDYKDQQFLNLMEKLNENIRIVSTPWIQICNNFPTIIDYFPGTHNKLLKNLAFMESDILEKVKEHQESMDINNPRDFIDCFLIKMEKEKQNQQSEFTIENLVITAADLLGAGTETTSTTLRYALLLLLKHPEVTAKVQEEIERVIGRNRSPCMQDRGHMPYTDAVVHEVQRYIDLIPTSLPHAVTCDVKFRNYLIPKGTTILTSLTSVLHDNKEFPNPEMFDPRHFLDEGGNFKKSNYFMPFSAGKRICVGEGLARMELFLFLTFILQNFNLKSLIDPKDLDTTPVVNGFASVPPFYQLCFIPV

[2] = biological target: E3 ubiquitin-protein ligase Mdm2 (Homo sapiens, UniProt Q00987); assay: MDM2-luc reporter signal enhancers, multi-concentration potency testing, MDM2 ubiquitin-protein ligase inhibitor program, whole-cell format, luminescence detection, 384-well microplate (AID 1394); assay type: functional;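 further: MDM2 E3 inhibitors raise luminescence so EC50 is for signal enhancement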
Chain of E3 ubiquitin-protein ligase Mdm2 (Q00987 whole entry): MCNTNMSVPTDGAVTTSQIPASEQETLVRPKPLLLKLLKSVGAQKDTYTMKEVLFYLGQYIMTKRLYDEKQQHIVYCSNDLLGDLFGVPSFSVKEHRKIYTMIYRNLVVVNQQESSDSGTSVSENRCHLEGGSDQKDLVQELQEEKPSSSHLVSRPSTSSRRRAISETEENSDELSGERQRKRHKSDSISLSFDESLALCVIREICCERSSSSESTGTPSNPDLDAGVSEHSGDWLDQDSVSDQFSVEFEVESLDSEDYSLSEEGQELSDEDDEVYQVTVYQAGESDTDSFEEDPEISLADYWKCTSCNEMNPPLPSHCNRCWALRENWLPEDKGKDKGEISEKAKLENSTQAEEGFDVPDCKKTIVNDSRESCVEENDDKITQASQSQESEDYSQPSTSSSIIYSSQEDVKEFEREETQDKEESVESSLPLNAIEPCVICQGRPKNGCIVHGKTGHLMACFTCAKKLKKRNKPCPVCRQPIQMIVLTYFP

[3] = tested on: Streptococcus sp. 'group A'; assay: Streptococcus pyogenes SK(-)GAS viability under kanamycin – luminescence, BacTiterGlo, confirmation, counter-screen for streptokinase expression inhibitor project, dose response (AID 1900); assay type: functional, organism-based
[4] = Trypanosoma cruzi growth suppression in host cells – NIH3T3 host cells, beta-gal luminescence, confirmation (AID 2044); assay type: functional, cell-based;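 further: intracellular parasites grown in NIH/3T3 mouse fibroblasts as host cells; luminescent beta-galactosidase reporter signal from transgenic T. cruzi replicating inside host cells; inhibitors lower the luminescence signal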
[5] = NIH3T3 cell viability loss – ATP luminescence, mouse fibroblasts, counter-screen, dose response (AID 2010); assay type: functional, cell-based;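 further: cells exposed to compound for about 90 hours before reading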
Streptococcus = assay: GAS UMAA2166 growth inhibition – luminescence, BacTiterGlo, counter-screen for streptokinase expression inhibitor project, dose response (AID 1915); assay type: functional, organism-based;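 further: potency for reduction of bacterial viability or growth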
X-box-binding protein 1 = X-box-binding protein 1 (Homo sapiens, UniProt P17861); assay type: functional, Cricetulus griseus;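 further: confirmatory dose-response counter-screen serving a CHOP assay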
Chain of X-box-binding protein 1 (P17861 whole entry): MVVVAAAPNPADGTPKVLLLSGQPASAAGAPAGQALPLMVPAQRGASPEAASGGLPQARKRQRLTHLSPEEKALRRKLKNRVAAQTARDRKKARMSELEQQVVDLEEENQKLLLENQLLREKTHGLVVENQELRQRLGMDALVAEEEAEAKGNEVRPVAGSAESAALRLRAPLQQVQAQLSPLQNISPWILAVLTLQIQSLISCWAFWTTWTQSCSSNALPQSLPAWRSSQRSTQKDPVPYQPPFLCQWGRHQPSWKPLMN

[6] = biological target: T3, High affinity choline transporter 1 (Homo sapiens, UniProt Q9GZV3); assay: human choline transporter blockers, potency – cell-based, 5-point CRC, membrane potential dye, dose response (AID 504840); assay type: functional
T3 sequence (Q9GZV3 whole entry): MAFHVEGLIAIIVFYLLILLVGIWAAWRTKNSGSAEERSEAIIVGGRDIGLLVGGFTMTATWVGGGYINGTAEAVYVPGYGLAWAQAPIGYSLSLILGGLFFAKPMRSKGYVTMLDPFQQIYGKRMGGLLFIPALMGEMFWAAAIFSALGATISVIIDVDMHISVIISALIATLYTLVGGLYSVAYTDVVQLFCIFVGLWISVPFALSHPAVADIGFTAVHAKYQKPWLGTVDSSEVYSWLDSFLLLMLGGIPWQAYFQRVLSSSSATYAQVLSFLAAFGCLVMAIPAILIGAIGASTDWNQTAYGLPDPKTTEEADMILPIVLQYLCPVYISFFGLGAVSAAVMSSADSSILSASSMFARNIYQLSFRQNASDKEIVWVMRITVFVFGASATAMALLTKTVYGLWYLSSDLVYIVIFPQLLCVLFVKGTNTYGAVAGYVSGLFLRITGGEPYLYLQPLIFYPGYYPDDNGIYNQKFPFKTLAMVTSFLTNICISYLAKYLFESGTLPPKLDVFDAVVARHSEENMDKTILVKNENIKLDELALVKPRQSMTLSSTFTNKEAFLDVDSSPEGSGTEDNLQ

[7] = biological target: Sphingosine 1-phosphate receptor 2 (Homo sapiens, UniProt O95136); assay: Dose Response Cell Based Assay for Agonists of the S1P2 Receptor. [Related pubchem assays: 729, 736, 843 ]; assay type: functional
Chain of Sphingosine 1-phosphate receptor 2 (O95136 whole entry): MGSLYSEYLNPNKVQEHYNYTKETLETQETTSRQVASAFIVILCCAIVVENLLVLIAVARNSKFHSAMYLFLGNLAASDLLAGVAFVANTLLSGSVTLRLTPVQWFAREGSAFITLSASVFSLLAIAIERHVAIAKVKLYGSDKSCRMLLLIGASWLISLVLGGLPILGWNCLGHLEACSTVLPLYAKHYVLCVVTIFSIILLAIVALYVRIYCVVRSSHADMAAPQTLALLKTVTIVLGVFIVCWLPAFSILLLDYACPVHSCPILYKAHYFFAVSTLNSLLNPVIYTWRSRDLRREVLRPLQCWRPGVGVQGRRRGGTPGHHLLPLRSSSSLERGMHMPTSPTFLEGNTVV

[8] = biological target: Aryl hydrocarbon receptor (Homo sapiens, UniProt P35869); assay: Luminescence-based cell-based high throughput dose response assay for activators of the Aryl Hydrocarbon Receptor (AHR). [Related pubchem assays: 2796 (Primary screen (AHR activators in singlicate)), 2845 (Confirmation screen (AHR activators in triplicate)), 434939 (Counterscreen (PXR activators in triplicate)), 2804 (Summary (AHR activators))]; assay type: ADME
Chain of Aryl hydrocarbon receptor (P35869 whole entry): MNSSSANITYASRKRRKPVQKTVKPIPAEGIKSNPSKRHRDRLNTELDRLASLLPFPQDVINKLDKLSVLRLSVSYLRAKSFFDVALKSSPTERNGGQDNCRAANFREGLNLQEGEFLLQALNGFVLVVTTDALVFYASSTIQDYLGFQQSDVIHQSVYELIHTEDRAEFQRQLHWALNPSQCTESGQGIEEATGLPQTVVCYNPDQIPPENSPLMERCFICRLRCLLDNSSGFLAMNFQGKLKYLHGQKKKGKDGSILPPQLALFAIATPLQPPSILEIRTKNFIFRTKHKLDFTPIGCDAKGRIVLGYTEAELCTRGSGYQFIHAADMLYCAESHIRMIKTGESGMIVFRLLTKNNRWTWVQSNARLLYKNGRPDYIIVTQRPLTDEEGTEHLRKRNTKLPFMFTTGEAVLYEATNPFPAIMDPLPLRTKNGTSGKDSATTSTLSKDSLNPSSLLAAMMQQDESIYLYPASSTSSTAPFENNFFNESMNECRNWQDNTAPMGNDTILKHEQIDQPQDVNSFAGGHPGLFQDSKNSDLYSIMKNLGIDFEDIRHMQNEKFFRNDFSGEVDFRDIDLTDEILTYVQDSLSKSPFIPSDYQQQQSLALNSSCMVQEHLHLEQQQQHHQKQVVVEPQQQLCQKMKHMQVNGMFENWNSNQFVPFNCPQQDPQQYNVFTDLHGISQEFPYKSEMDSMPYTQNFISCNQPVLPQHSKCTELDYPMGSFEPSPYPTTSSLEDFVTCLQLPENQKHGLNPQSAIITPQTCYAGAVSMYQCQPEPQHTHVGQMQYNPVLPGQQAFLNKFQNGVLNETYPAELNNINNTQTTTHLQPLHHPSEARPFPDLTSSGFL

[9] = biological target: T4, Tyrosine-protein phosphatase non-receptor type 7 (Homo sapiens, UniProt P35236); assay: HePTP tyrosine phosphatase activity blockers – biochemical, absorbance, leukemia target, primary screen (AID 521); assay type: functional
T4 sequence (P35236 whole entry): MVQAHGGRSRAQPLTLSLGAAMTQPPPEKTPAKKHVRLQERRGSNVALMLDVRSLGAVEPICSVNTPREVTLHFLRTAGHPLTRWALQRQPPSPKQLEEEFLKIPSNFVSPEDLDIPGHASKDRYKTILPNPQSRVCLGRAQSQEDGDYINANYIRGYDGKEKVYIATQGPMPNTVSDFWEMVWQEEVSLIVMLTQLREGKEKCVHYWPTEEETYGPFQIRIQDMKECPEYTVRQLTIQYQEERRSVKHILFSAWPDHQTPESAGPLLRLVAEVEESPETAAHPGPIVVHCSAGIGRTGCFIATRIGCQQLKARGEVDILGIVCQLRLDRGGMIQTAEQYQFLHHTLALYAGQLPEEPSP

Ephrin type-A receptor 4 = Ephrin type-A receptor 4 (Mus musculus, UniProt Q03137); assay: EphA4 ligand-binding antagonists – biochemical, colorimetric, mouse EphA4, primary screen (AID 689); assay type: functional
Chain of Ephrin type-A receptor 4 (Q03137 whole entry): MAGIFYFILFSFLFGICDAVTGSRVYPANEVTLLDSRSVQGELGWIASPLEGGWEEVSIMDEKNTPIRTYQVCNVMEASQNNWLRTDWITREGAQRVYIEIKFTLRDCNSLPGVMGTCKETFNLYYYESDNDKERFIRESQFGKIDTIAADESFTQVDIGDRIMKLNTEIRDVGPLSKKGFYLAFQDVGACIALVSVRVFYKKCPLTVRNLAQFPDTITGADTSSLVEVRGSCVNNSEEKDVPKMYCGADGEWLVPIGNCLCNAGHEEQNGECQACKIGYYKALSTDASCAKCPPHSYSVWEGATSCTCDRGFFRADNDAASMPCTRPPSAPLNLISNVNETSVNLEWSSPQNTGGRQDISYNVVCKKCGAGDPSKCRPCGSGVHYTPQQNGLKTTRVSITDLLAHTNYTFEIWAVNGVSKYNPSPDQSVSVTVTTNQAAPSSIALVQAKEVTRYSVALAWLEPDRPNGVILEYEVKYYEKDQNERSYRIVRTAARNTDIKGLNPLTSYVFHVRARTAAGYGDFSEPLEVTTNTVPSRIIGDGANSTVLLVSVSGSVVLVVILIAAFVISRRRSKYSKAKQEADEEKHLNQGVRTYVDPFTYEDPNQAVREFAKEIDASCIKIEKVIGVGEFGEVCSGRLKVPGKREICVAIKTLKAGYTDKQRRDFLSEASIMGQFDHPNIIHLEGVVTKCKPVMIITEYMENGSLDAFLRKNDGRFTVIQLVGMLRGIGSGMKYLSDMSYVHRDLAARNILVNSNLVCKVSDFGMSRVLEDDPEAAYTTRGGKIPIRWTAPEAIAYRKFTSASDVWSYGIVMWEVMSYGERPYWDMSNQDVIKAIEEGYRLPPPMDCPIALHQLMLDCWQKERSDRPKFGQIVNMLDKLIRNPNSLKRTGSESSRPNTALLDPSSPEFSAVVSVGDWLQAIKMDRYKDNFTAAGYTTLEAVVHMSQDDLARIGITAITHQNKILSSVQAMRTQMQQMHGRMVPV

[10] = biological target: Heat shock protein HSP 90-alpha (Homo sapiens, UniProt P07900); assay: Luminescence-based dose response biochemical high throughput screening assay for inhibitors of the Heat Shock Protein 90 (HSP90). [Related pubchem assays: 1831 (Summary AID.), 1846 (Confirmation screen.), 1789 (Primary screen.)]

## Nc1cccc2c1=NC1(CCCCC1)[N+]=2[O-]
Prothrombin
  IC50: > 50 µM (not active)
[1]
  IC50: > 50 µM (not active)
Protein Tat
  IC50: > 100 µM (inconclusive)

## COC(=O)NC(c1cccc(F)c1)[C@]1(C(C)=O)CCCC1=O (stereo partly drawn)
Cytochrome P450 2C19
  AC50: 2.51 µM (inconclusive)

## CC(C)c1ccc2c(c1)C1(NN=C(c3ccccc3)S1)C(=O)N2 (stereo not drawn)
[2]
  EC50: 1.42 µM (active)
[3]
  EC50: < 0.06 µM (active)
[4]
  EC50: 0.333 µM (active)
[5]
  EC50: 6.8 µM (active)
Streptococcus
  EC50: 2.81 µM (active)
X-box-binding protein 1
  Absolute IC50 (XBP1): 10 µM
[6]
  IC50: 12.6 µM (active)

## O=C(NCC1(c2ccccc2)CCCC1)C(=O)N1CCOCC1
[7]
  EC50: > 50 µM (not active)

## CCOCCc1nnc(NC(=O)c2ccc(OC)c(OC)c2)s1
[8]
  EC50: 6.13 µM (active)

## O=C(Nc1ccccc1)c1ccc(NCC2CCCO2)c(S(=O)(=O)N2CCOCC2)c1 (stereo not drawn)
[9]
  IC50: > 100 µM (not active)

## O=C(CCN1C(=O)/C(=C/C=C/c2ccccc2)SC1=S)Nc1nccs1
Ephrin type-A receptor 4
  IC50: > 100 µM (not active)

## CCc1ccc(Nc2n[n+](-c3ccccc3)c(-c3ccc(N(CC)CC)cc3)s2)cc1
[4]
  EC50: 0.408 µM (active)
[5]
  EC50: > 60 µM (not active)
[10]
  IC50: 5.48 µM (active)
